Data on one molecule can be found in paper PMC12651750 (Cells, 2025).

Assay [1] relates to 4T1, mouse breast cancer cell line. As to the kind of experiment: Anti-proliferation MTT / CCK-8 assay. In kind it is cell-based. The conditions noted are these: 72 h. An excerpt: (§1) K562, human erythroleukemia line; HL-60, human leukemic cell line; Jurkat, human leukemic T cell line; CCRF-CEM, human leukemic lymphoblasts; U937, human histiocytic lymphoma; HCT-116, human colorectal cancer cell line; A549, human lung cancer cell line; Hep G2, human hepatoma cell lines; MDA-MB-231, MCF-7, human breast cancer cell line; 4T1, mouse breast cancer cell line; PC12, pheochromocytoma of the rat adrenal medulla; HUVEC, human umbilical vein endothelial cells. These cells were purchased from the National Collection of Authenticated Cell Cultures (Shanghai, China).
(§2) The concentration of the cell suspension was adjusted to the appropriate concentration with fresh medium (the number of cells was about 30–40% of the bottom area of the well plate). 150 μL (about 1 × 10^4 cells) of prepared cell suspension containing different concentrations of NBU-2 were added to a 96-microtiter plate, and 3 replicate wells were set up for each concentration. If the cells were adherent, the cells were first allowed to grow overnight in 96 microtiter plates until the cells were adherent, and then the old medium was replaced with the drug-containing medium. The plates were incubated in a 5% CO2 cell incubator at 37 °C for 72 h. Then, 15 μL of MTT solution was added to each well, 100 μL of 10% SDS solution (pH = 2) was added after 4 h, and the plate was incubated at 37 °C with 5% CO2 overnight to fully dissolve the crystals. Finally, the absorbance value of each well was measured at 570 and 655 nm.
(§3) The cells (about 1 × 10^4 cells) were treated with different concentrations of NBU-2 and DMSO control for different times (24 h, 48 h, 72 h), with 3 replicate wells for each concentration. Incubate at 37 °C in a 5% CO2 cell culture incubator. After a predetermined time, 10 μL of CCK-8 was added to each well and incubated for 2 h. The absorbance was measured at the excitation wavelength of 450 nm.

The test system of assay [2] is A549, human lung cancer cell line. As to the kind of experiment: Anti-proliferation MTT / CCK-8 assay. In kind it is cell-based. As to conditions: A549, read-out: IC50 proliferation A549, heading: IC50 proliferation A549, 72 h, mean ± SEM of three independent assays.
Source text: as §1, §2, §3

Assay [3] concerns CCRF-CEM, human leukemic lymphoblasts. As to the kind of experiment: Anti-proliferation MTT / CCK-8 assay. In kind it is cell-based.
Source text: as §1, §2, §3

Assay [4] has as its system HCT-116, human colorectal cancer cell line. As to the kind of experiment: Anti-proliferation MTT / CCK-8 assay. In kind it is cell-based. The conditions noted are these: HCT-116, read-out: IC50 proliferation HCT-116, heading: IC50 proliferation HCT-116, 72 h, mean ± SEM of three independent assays.
Source text: as §1, §2, §3

Assay [5] relates to HL-60, human leukemic cell line. As to the kind of experiment: Anti-proliferation MTT / CCK-8 assay. In kind it is cell-based.
Source text: as §1, §2, §3

The test system of assay [6] is Hep G2, human hepatoma cell lines. Nature of the assay: Anti-proliferation MTT / CCK-8 assay. In kind it is cell-based. The conditions noted are these: HepG2, read-out: IC50 proliferation HepG2, heading: IC50 proliferation HepG2, 72 h, mean ± SEM of three independent assays.
Source text: as §1, §2, §3

For assay [7], the system named is K562, human erythroleukemia line. As to the kind of experiment: Anti-proliferation MTT / CCK-8 assay. In kind it is cell-based. The conditions noted are these: K562, read-out: IC50 proliferation K562, heading: IC50 proliferation K562, 72 h, mean ± SEM of three independent assays.
Source text: as §1, §2, §3

Assay [8] relates to MCF-7, human breast cancer cell line. As to the kind of experiment: Anti-proliferation MTT / CCK-8 assay. In kind it is cell-based. As to conditions: MCF7, read-out: IC50 proliferation MCF-7, heading: IC50 proliferation MCF-7, 72 h, mean ± SEM of three independent assays.
Source text: as §1, §2, §3

Assay [9] deals with MDA-MB-231, human breast cancer cell line. As to the kind of experiment: Anti-proliferation MTT / CCK-8 assay. In kind it is cell-based. The conditions noted are these: MDA-MB-231, read-out: IC50 proliferation MDA-MB-231, heading: IC50 proliferation MDA-MB-231, 72 h, mean ± SEM of three independent assays.
Source text: as §1, §2, §3

Assay [10] concerns Jurkat cells. As to the kind of experiment: Annexin V-FITC/PI apoptosis assay (flow cytometry). In kind it is cell-based, human. As to conditions: 48 h. The procedure:
Apoptosis was assessed using an Annexin V-FITC Apoptosis Detection Kit according to the manufacturer’s instructions. Briefly, cells were double-stained with fluorescein isothiocyanate (FITC)-conjugated Annexin V and propidium iodide (PI). Jurkat cells were cultured to the appropriate density. Three sets of concentration gradients, namely 0.2 μM, 1 μM, and 5 μM, were established while DMSO was used as the control. The Jurkat cells were cultured for 48 h. Centrifuge at 1000× g for 5 min to precipitate the cells. We collected the cells, added the staining solution according to the instructions of the Annexin V-FITC Apoptosis Detection Kit to complete the staining, and immediately tested the cells on Flow cytometry.

Assay [11] deals with Jurkat cells. As to the kind of experiment: Whole proteomic analysis (mass spectrometry). In kind it is cell-based, human. The procedure: The cell cultivation was completed in a 60 mm plate; the number of cells accounted for roughly 30–40% of the orifice. We stimulated cells with 1 μM and 5 μM of NBU-2 and 0.1% DMSO. […] After 48 h, the cells were collected, about 200 μL of NP-40 Lysis Buffer containing phosphatase inhibitor and protease inhibitor was added, and the cells were lysed to release the proteins. Measure the protein concentration of each group of samples using the BCA protein quantification method. The disulfide bonds in the protein structure were reduced using TCEP and then alkylated with IAA. Samples were added to a centrifugal filtration unit with an ultrafiltration membrane, and proteins were digested using trypsin 2 times, the first time for 4 h and the second time overnight with the addition of an appropriate amount of trypsin. […] Samples were reconstituted using 0.1% formic acid, and approximately 1 μg of protein was taken for detection using mass spectrometry.
Mass spectrometry analysis was performed using an Orbitrap Fusion Lumos mass spectrometer (Thermo Fisher Scientific, Shanghai, China). Chromatographic separations were performed on an Acclaim PepMap C18 column using a 60 min linear gradient elution program: the proportion of mobile phase B (acetonitrile containing 0.1% formic acid) was increased from 2% to 35%, and the flow rate was maintained at 250 nL/min. […]

Like-named read-outs stand apart in the source and are kept apart here.

`Cc1cccc2c(=O)c3c(NCCCCCC(=O)NO)ccc([N+](=O)[O-])c3[nH]c12` [NBU-2, N-hydroxy-6-((5-methyl-4-nitro-9-oxo-9,10-dihydroacridin-1-yl)amino)hexanamide]: the IC50 in assay [1] is over 0.05 µM; in [2] it was 33.7 ± 2.15 µM; in assay [3] (72 h, read-out: IC50 against CCRF-CEM), under 5 µM; in assay [3] (read-out: IC50 proliferation CCRF-CEM, 72 h, mean ± SEM of three independent assays), 2.68 ± 0.3 µM; in assay [4] it was 7.06 ± 1.48 µM; in assay [5] (HL-60, 72 h, read-out: IC50 against HL-60), under 5 µM. The IC50 in assay [5] (HL-60, read-out: IC50 proliferation HL-60, heading: IC50 proliferation HL-60, 72 h, mean ± SEM of three independent assays) was 1.92 ± 0.08 µM; in assay [6] it was 7.55 ± 0.46 µM; in assay [7], 7.02 ± 1.85 µM; in assay [8], 14.9 ± 3.21 µM; in assay [9], 8.76 ± 1.88 µM. The “Percentage of cells in early apoptotic stage (Q3)” value in assay [10] (0.2 μM) was found to be 11.5%; in assay [10] (1 μM), 16.1%; in [10] (5 μM), 84.7%. In [11] (1 µM and 5 µM vs DMSO, p > 0.05), the “Total Akt protein (proteomics)” value is “did not show any significant change”. Moreover, the “Expression of Rb (proteomics)” value in assay [11] (48 h) was “not affected”.
